Laboratory results published in publication PMC11240139, “Exploring the antitumor potential of novel quinoline derivatives via tubulin polymerization inhibition in breast cancer; design, synthesis and molecular docking” (RSC Advances, 2024).

Experiments:
Assay in all cases: NCI-60 SRB cytotoxicity screen
Format in all cases: cell-based
[1] = test system: NCI/ADR-RES (ovarian cancer)
MALME-3M (melanoma) = test system: MALME-3M (melanoma)
IGROV1 (ovarian cancer) = test system: IGROV1 (ovarian cancer)
[2] = test system: EKVX (non-small cell lung cancer)
A498 (renal cancer) = test system: A498 (renal cancer)
HT29 (colon cancer) = test system: HT29 (colon cancer)
SNB-75 (CNS cancer) = test system: SNB-75 (CNS cancer)
PC-3 (prostate cancer) = test system: PC-3 (prostate cancer)
786-0 (renal cancer) = test system: 786-0 (renal cancer)
M14 (melanoma) = test system: M14 (melanoma)
HCC-2998 (colon cancer) = test system: HCC-2998 (colon cancer)
UACC-257 (melanoma) = test system: UACC-257 (melanoma)
SW-620 (colon cancer) = test system: SW-620 (colon cancer)
SK-MEL-28 (melanoma) = test system: SK-MEL-28 (melanoma)
LOX IMVI (melanoma) = test system: LOX IMVI (melanoma)
[3] = test system: HOP-92 (non-small cell lung cancer)
[4] = Homo sapiens, five-dose assay, read-out: LC50 (the source's name)
[5] = Homo sapiens, single dose 10 μM, read-out: growth inhibition (GI%)
[6] = Homo sapiens, A498, five-dose assay
[7] = Homo sapiens, M14, five-dose assay
[8] = Homo sapiens, HCC-2998, five-dose assay
[9] = Homo sapiens, UACC-257, five-dose assay
[10] = Homo sapiens, SW-620, five-dose assay
[11] = Homo sapiens, SK-MEL-28, five-dose assay

Structure (SMILES): CCc1cccc2cc(-c3cc(-c4cc(OC)c(OC)c(OC)c4)[nH]c(=O)c3C#N)c(Cl)nc12 [Compound 4c, 4-(2-Chloro-8-ethylquinolin-3-yl)-2-oxo-6-(3,4,5-trimethoxyphenyl)-1,2-dihydropyridine-3-carbonitrile]
- GI50 ([1]; Homo sapiens, five-dose assay): 44.9 µM
- CC50 [1, 4]: > 100 µM
- inhibition at 10 µM [1, 5]: 59.9%
- TGI ([1]; five-dose assay): >100 µM
- GI50 (MALME-3M (melanoma); Homo sapiens, five-dose assay): 10.1 µM
- CC50 (MALME-3M (melanoma); [4]): > 100 µM
- inhibition at 10 µM (MALME-3M (melanoma); [5]): 89.4%
- TGI (MALME-3M (melanoma); five-dose assay): 40.00 µM
- GI50 (IGROV1 (ovarian cancer); Homo sapiens, IGROV-1, IGROV1, five-dose assay): 12.2 µM
- CC50 (IGROV1 (ovarian cancer); Homo sapiens, IGROV-1, IGROV1, five-dose assay, read-out: LC50 (the source's name)): > 100 µM
- inhibition at 10 µM (IGROV1 (ovarian cancer); Homo sapiens, IGROV-1, IGROV1, single dose 10 μM, read-out: growth inhibition (GI%)): 66.3%
- TGI (IGROV1 (ovarian cancer); IGROV1, five-dose assay): 46.30 µM
- GI50 ([2]; Homo sapiens, five-dose assay): 28.6 µM
- CC50 [2, 4]: > 100 µM
- inhibition at 10 µM [2, 5]: 50.1%
- TGI ([2]; five-dose assay): >100 µM
- TGI (A498 (renal cancer); A498, five-dose assay): 45.20 µM
- growth inhibition (GI%) (A498 (renal cancer); A498, single dose 10 μM): lethal effect
- GI50 (A498 (renal cancer); [6]): 15.8 µM
- LC50 (concentration killing 50% of cells) (A498 (renal cancer); [6]): > 100 µM
- inhibition at 10 µM (A498 (renal cancer); Homo sapiens, A498, single dose 10 μM, read-out: growth inhibition (GI%)): > 100%
- TGI (HT29 (colon cancer); HT29, five-dose assay): >100 µM
- GI50 (HT29 (colon cancer); Homo sapiens, HT-29, HT29, five-dose assay): 32.1 µM
- CC50 (HT29 (colon cancer); Homo sapiens, HT-29, HT29, five-dose assay, read-out: LC50 (the source's name)): > 100 µM
- inhibition at 10 µM (HT29 (colon cancer); Homo sapiens, HT-29, HT29, single dose 10 μM, read-out: growth inhibition (GI%)): < 10%
- inhibition at 10 µM (SNB-75 (CNS cancer); Homo sapiens, SNB-75, SNB-75, single dose 10 μM, read-out: growth inhibition (GI%)): > 100%
- GI50 (SNB-75 (CNS cancer); Homo sapiens, SNB-75, five-dose assay): 2.38 µM
- CC50 (SNB-75 (CNS cancer); Homo sapiens, SNB-75, five-dose assay, read-out: LC50 (the source's name)): 52.6 µM
- TGI (SNB-75 (CNS cancer); SNB-75, five-dose assay): 16.90 µM
- GI50 (PC-3 (prostate cancer); PC-3, five-dose assay): 40.3 µM
- TGI (PC-3 (prostate cancer); PC-3, five-dose assay): >100 µM
- CC50 (PC-3 (prostate cancer); PC-3, five-dose assay, read-out: LC50 (the source's name)): > 100 µM
- inhibition at 10 µM (PC-3 (prostate cancer); PC-3, single dose 10 μM, read-out: growth inhibition (GI%)): 67.6%
- TGI (786-0 (renal cancer); 786-0, five-dose assay): 26.70 µM
- growth inhibition (GI%) (786-0 (renal cancer); 786-0, single dose 10 μM): lethal effect
- GI50 (786-0 (renal cancer); Homo sapiens, 786-0, five-dose assay): 11.7 µM
- CC50 (786-0 (renal cancer); Homo sapiens, 786-0, five-dose assay, read-out: LC50 (the source's name)): 61.1 µM
- inhibition at 10 µM (786-0 (renal cancer); Homo sapiens, 786-0, single dose 10 μM, read-out: growth inhibition (GI%)): > 100%
- GI50 (M14 (melanoma); [7]): 29.7 µM
- LC50 (M14 (melanoma); [7]): > 100 µM
- inhibition at 10 µM (M14 (melanoma); Homo sapiens, M14, single dose 10 μM, read-out: growth inhibition (GI%)): 42.8%
- TGI (M14 (melanoma); M14, five-dose assay): >100 µM
- TGI (HCC-2998 (colon cancer); HCC-2998, five-dose assay): >100 µM
- GI50 (HCC-2998 (colon cancer); [8]): 35.7 µM
- LC50 (50% lethal concentration) (HCC-2998 (colon cancer); [8]): > 100 µM
- inhibition at 10 µM (HCC-2998 (colon cancer); Homo sapiens, HCC-2998, single dose 10 μM, read-out: growth inhibition (GI%)): 47%
- GI50 (UACC-257 (melanoma); [9]): 42.6 µM
- LC50 (UACC-257 (melanoma); [9]): > 100 µM
- inhibition at 10 µM (UACC-257 (melanoma); Homo sapiens, UACC-257, single dose 10 μM, read-out: growth inhibition (GI%)): 26.5%
- TGI (UACC-257 (melanoma); UACC-257, five-dose assay): >100 µM
- GI50 (SW-620 (colon cancer); [10]): 27.5 µM
- LC50 (lethal concentration, 50% net cell kill) (SW-620 (colon cancer); [10]): > 100 µM
- inhibition at 10 µM (SW-620 (colon cancer); Homo sapiens, SW-620, single dose 10 μM, read-out: growth inhibition (GI%)): 17.4%
- TGI (SW-620 (colon cancer); SW-620, five-dose assay): >100 µM
- GI50 (SK-MEL-28 (melanoma); [11]): 21.1 µM
- LC50 (concentration causing 50% net cell kill) (SK-MEL-28 (melanoma); [11]): > 100 µM
- inhibition at 10 µM (SK-MEL-28 (melanoma); Homo sapiens, SK-MEL-28, single dose 10 μM, read-out: growth inhibition (GI%)): 68.9%
- TGI (SK-MEL-28 (melanoma); SK-MEL-28, five-dose assay): >100 µM
- GI50 (LOX IMVI (melanoma); Homo sapiens, five-dose assay): 13.5 µM
- CC50 (LOX IMVI (melanoma); [4]): 81.3 µM
- inhibition at 10 µM (LOX IMVI (melanoma); [5]): 91.6%
- TGI (LOX IMVI (melanoma); five-dose assay): 33.20 µM
- TGI ([3]; HOP-92, five-dose assay): 9.68 µM
- growth inhibition (GI%) ([3]; HOP-92, single dose 10 μM): lethal effect
- GI50 ([3]; Homo sapiens, HOP-92, five-dose assay): 2.37 µM
